Data: EP4763839A1 (Pamplona Therapeutics (Shenzhen) Co., Ltd., priority 2023, dated 2025)
Structures can show the parent of a compound that is named as a salt.

Target: T1, IRAK4 (Homo sapiens, UniProt Q9NWZ3)
T1 sequence (Q9NWZ3 1-460): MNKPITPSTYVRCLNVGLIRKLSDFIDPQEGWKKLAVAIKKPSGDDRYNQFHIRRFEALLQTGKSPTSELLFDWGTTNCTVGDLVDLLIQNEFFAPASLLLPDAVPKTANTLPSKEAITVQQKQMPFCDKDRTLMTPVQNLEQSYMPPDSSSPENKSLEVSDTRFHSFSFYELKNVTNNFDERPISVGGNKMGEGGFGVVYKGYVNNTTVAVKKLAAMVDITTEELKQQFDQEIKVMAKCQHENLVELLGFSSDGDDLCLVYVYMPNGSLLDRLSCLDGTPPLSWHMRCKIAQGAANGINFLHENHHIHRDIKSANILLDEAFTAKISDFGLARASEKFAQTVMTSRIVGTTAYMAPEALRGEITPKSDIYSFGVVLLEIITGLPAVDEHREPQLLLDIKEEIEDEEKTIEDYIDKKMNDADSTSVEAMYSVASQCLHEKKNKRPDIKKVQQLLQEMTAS
Assay: Degradation of IRAK4 in THP1 cells, Western blot
Assay type: cell-based
Parameters: Degradation of IRAK4 in THP1 by compound; host or cells: THP-1
Conditions: THP-1 cells, 24 hours of incubation; for DC50: IRAK4 protein by Western blot, read-out: DC50; for Dmax: maximum degradation rate, read-out: Dmax
Procedure, shortened: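 Degradation rate derived from densitometry of IRAK4 bands versus DMSO-treated controls. Read-out: anti-IRAK4 immunoblot (10% gel, 40 μg total protein per lane, BCA-normalised) of lysates from THP1 cells incubated with compound for 24 h.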

`NC(=O)c1nn(-c2ccc(N3CCN(C4CCC5(CC4)CN(c4ccc(N6CCC(=O)NC6=O)cc4)C5)CC3)cc2)cc1NC(=O)c1cccc(C(F)(F)F)n1` [Compound A391, N-(3-Carbamoyl-1-(4-(4-(2-(4-(2,4-dioxotetrahydropyrimidin-1(2H)-yl)phenyl)-2-azaspiro[3.5]nonan-7-yl)piperazin-1-yl)phenyl)-1H-pyrazol-4-yl)-6-(trifluoromethyl)picolinamide] showed a DC50 of under 100 nM and a Dmax of over 60%.
For `NC(=O)c1nn(-c2ccc(N3CCN(CC4CC5(CCN(c6ccc(N7CCC(=O)NC7=O)cc6)CC5)C4)CC3)cc2)cc1NC(=O)c1cccc(C(F)(F)F)n1` [Compound A392, N-(3-Carbamoyl-1-(4-(4-((7-(4-(2,4-dioxotetrahydropyrimidin-1(2H)-yl)phenyl)-7-azaspiro[3.5]nonan-2-yl)methyl)piperazin-1-yl)phenyl)-1H-pyrazol-4-yl)-6-(trifluoromethyl)picolinamide], the DC50 was 100 to 1000 nM and the Dmax was 40 to 60%.
`NC(=O)c1nn(-c2ccc(N3CCN(C(=O)C4CC5(CCN(c6ccc(N7CCC(=O)NC7=O)cc6)CC5)C4)CC3)cc2)cc1NC(=O)c1cccc(C(F)(F)F)n1` [Compound A394, N-(3-Carbamoyl-1-(4-(4-(7-(4-(2,4-dioxotetrahydropyrimidin-1(2H)-yl)phenyl)-7-azaspiro[3.5]nonane-2-carbonyl)piperazin-1-yl)phenyl)-1H-pyrazol-4-yl)-6-(trifluoromethyl)picolinamide] gave a DC50 of 100 to 1000 nM and a Dmax of 40 to 60%.
With `NC(=O)c1nn(-c2ccc(N3CCN(CC4CCN(c5ccc(NC6CCC(=O)NC6=O)cn5)CC4)CC3)cc2)cc1NC(=O)c1cccc(C(F)(F)F)n1` (centres unmarked) [Compound A396, N-(3-Carbamoyl-1-(4-(4-((1-(5-((2,6-dioxopiperidin-3-yl)amino)pyridin-2-yl)piperidin-4-yl)methyl)piperazin-1-yl)phenyl)-1H-pyrazol-4-yl)-6-(trifluoromethyl)picolinamide] the DC50 was under 100 nM and the Dmax was over 60%.
For `NC(=O)c1nn(-c2ccc(N3CCN(CCC4CCN(C(=O)c5ccc(F)c(N6CCC(=O)NC6=O)c5)CC4)CC3)cc2)cc1NC(=O)c1cccc(C(F)(F)F)n1` [Compound A402, N-(3-Carbamoyl-1-(4-(4-(2-(1-(3-(2,4-dioxotetrahydropyrimidin-1(2H)-yl)-4-fluorobenzoyl)piperidin-4-yl)ethyl)piperazin-1-yl)phenyl)-1H-pyrazol-4-yl)-6-(trifluoromethyl)picolinamide trifluoroacetate], the DC50 was under 100 nM and the Dmax was over 60%.
For `NC(=O)c1nn([C@H]2CC[C@H](N3CCN(CC4CN(c5ccc(N6CCC(=O)NC6=O)cc5)C4)CC3)CC2)cc1NC(=O)c1cccc(C(F)(F)F)n1` [Compound A403, N-(3-Carbamoyl-1-((1r,4r)-4-(4-((1-(4-(2,4-dioxotetrahydropyrimidin-1(2H)-yl)phenyl)azetidin-3-yl)methyl)piperazin-1-yl)cyclohexyl)-1H-pyrazol-4-yl)-6-(trifluoromethyl)picolinamide], the DC50 was under 100 nM and the Dmax was 40 to 60%.
`NC(=O)c1nn(-c2ccc(N3CCN(C(=O)C4CN(c5ccc(N6CCC(=O)NC6=O)cc5)C4)CC3)cc2)cc1NC(=O)c1cccc(C(F)(F)F)n1` [Compound A409, N-(3-Carbamoyl-1-(4-(4-(1-(4-(2,4-dioxotetrahydropyrimidin-1(2H)-yl)phenyl)azetidine-3-carbonyl)piperazin-1-yl)phenyl)-1H-pyrazol-4-yl)-6-(trifluoromethyl)picolinamide] gave a DC50 of under 100 nM and a Dmax of over 60%.
Work on `NC(=O)c1nn(-c2ccc(N3CCN(C(=O)C4CN(c5cc(F)c(C6CCC(=O)NC6=O)c(F)c5)C4)CC3)cc2)cc1NC(=O)c1cccc(C(F)(F)F)n1` (centres unmarked) [Compound A411, N-(3-carbamoyl-1-(4-(4-(1-(4-(2,6-dioxopiperidin-3-yl)-3,5-difluorophenyl)azetidine-3-carbonyl)piperazin-1-yl)phenyl)-1H-pyrazol-4-yl)-6-(trifluoromethyl)picolinamide] yielded a DC50 of under 100 nM and a Dmax of over 60%.
For `NC(=O)c1nn(-c2ccc(N3CCN(C(=O)C4CCN(c5cc(F)c(C6CCC(=O)NC6=O)c(F)c5)C4)CC3)cc2)cc1NC(=O)c1cccc(C(F)(F)F)n1` (centres unmarked) [Compound A414], the DC50 was under 100 nM and the Dmax was over 60%.
For `NC(=O)c1nn(-c2ccc(N3CCN(C(=O)C4CCN(c5ccc(OC6CCC(=O)NC6=O)cn5)CC4)CC3)cc2)cc1NC(=O)c1cccc(C(F)(F)F)n1` (centres unmarked) [Compound A415, N-(3-Carbamoyl-1-(4-(4-(1-(5-((2,6-dioxopiperidin-3-yl)oxy)pyridin-2-yl)piperidine-4-carbonyl)piperazin-1-yl)phenyl)-1H-pyrazol-4-yl)-6-(trifluoromethyl)picolinamide], the DC50 was under 100 nM and the Dmax was over 60%.
`NC(=O)c1nn(-c2ccc(N3CCN(CC4CCN(c5ccc(OC6CCC(=O)NC6=O)cc5F)CC4)CC3)cc2)cc1NC(=O)c1cccc(C(F)(F)F)n1` (centres unmarked) [Compound A421, N-(3-Carbamoyl-1-(4-(4-((1-(4-((2,6-dioxopiperidin-3-yl)oxy)-2-fluorophenyl)piperidin-4-yl)methyl)piperazin-1-yl)phenyl)-1H-pyrazol-4-yl)-6-(trifluoromethyl)picolinamide] was tested, and the DC50 was under 100 nM and the Dmax was over 60%.
With `NC(=O)c1nn(-c2ccc(N3CCN(C4CCN(c5ccc(C(=O)NC6CCC(=O)NC6=O)c(F)c5)CC4)CC3)cc2)cc1NC(=O)c1cccc(C(F)(F)F)n1` (centres unmarked) [Compound A422, N-(3-Carbamoyl-1-(4-(4-(1-(4-((2,6-dioxopiperidin-3-yl)carbamoyl)-3-fluorophenyl)piperidin-4-yl)piperazin-1-yl)phenyl)-1H-pyrazol-4-yl)-6-(trifluoromethyl)picolinamide] the DC50 was under 100 nM and the Dmax was over 60%.
`COc1cc(NC2CCC(=O)NC2=O)ccc1N1CCC(CN2CCN(c3ccc(-n4cc(NC(=O)c5cccc(C(F)(F)F)n5)c(C(N)=O)n4)cc3)CC2)CC1` (centres unmarked) [Compound A423, N-(3-Carbamoyl-1-(4-(4-((1-(4-((2,6-dioxopiperidin-3-yl)amino)-2-methoxyphenyl)piperidin-4-yl)methyl)piperazin-1-yl)phenyl)-1H-pyrazol-4-yl)-6-(trifluoromethyl)picolinamide] gave a DC50 of 100 to 1000 nM and a Dmax of over 60%.
`COc1cc(NC2CCC(=O)NC2=O)ccc1N1CCC(N2CCN(c3ccc(-n4cc(NC(=O)c5cccc(C(F)(F)F)n5)c(C(N)=O)n4)cc3)CC2)CC1` (centres unmarked) [Compound A425, N-(3-Carbamoyl-1-(4-(4-(1-(4-((2,6-dioxopiperidin-3-yl)amino)-2-methoxyphenyl)piperidin-4-yl)piperazin-1-yl)phenyl)-1H-pyrazol-4-yl)-6-(trifluoromethyl)picolinamide] showed a DC50 of under 100 nM and a Dmax of over 60%.
`NC(=O)c1cn(-c2ccc(N3CCN(CC4CCN(c5ccc(NC6CCC(=O)NC6=O)cc5F)CC4)CC3)cc2)cc1NC(=O)c1cccc(C(F)(F)F)n1` (centres unmarked) [Compound A427, N-(4-Carbamoyl-1-(4-(4-((1-(4-((2,6-Dioxopiperidin-3-yl)amino)-2-fluorophenyl)piperidin-4-yl)methyl)piperazin-1-yl)phenyl)-1H-pyrrol-3-yl)-6-(trifluoromethyl)picolinamide] showed a DC50 of under 100 nM and a Dmax of over 60%.
Compound `NC(=O)c1cn(-c2ccc(N3CCN(C4CCN(c5ccc(NC6CCC(=O)NC6=O)cc5F)CC4)CC3)cc2)cc1NC(=O)c1cccc(C(F)(F)F)n1` (centres unmarked) [Compound A428, N-(4-Carbamoyl-1-(4-(4-(1-(4-((2,6-Dioxopiperidin-3-yl)amino)-2-fluorophenyl)piperidin-4-yl)piperazin-1-yl)phenyl)-1H-pyrrol-3-yl)-6-(trifluoromethyl)picolinamide] has a DC50 of under 100 nM and a Dmax of over 60%.
`NC(=O)c1nn(-c2ccc(N3CCN(C4CCN(c5ccc(OC6CCC(=O)NC6=O)cc5F)CC4)CC3)cc2)cc1NC(=O)c1cccc(C(F)(F)F)n1` (centres unmarked) [Compound A430, N-(3-Carbamoyl-1-(4-(4-(1-(4-((2,6-dioxopiperidin-3-yl)oxy)-2-fluorophenyl)piperidin-4-yl)piperazin-1-yl)phenyl)-1H-pyrazol-4-yl)-6-(trifluoromethyl)picolinamide] was tested, and the DC50 was under 100 nM and the Dmax was over 60%.
Compound `NC(=O)c1nn(-c2ccc(N3CCN(C4CCN(c5ccc(NC6CCC(=O)NC6=O)cn5)CC4)CC3)cc2)cc1NC(=O)c1cccc(C(F)(F)F)n1` (centres unmarked) [Compound A432, N-(3-Carbamoyl-1-(4-(4-(1-(5-((2,6-Dioxopiperidin-3-yl)amino)pyridin-2-yl)piperidin-4-yl)piperazin-1-yl)phenyl)-1H-pyrazol-4-yl)-6-(trifluoromethyl)picolinamide] has a DC50 of 100 to 1000 nM and a Dmax of 40 to 60%.
`NC(=O)c1nn(-c2ccc(N3CCN(C4CCN(c5ccc(C(=O)NC6CCC(=O)NC6=O)cn5)CC4)CC3)cc2)cc1NC(=O)c1cccc(C(F)(F)F)n1` (centres unmarked) [Compound A433, N-(3-Carbamoyl-1-(4-(4-(1-(5-((2,6-dioxopiperidin-3-yl)carbamoyl)pyridin-2-yl)piperidin-4-yl)piperazin-1-yl)phenyl)-1H-pyrazol-4-yl)-6-(trifluoromethyl)picolinamide] gave a DC50 of 100 to 1000 nM and a Dmax of 40 to 60%.
